In patent US4471131A, “Novel silyl esters of N-phosphonomethylglycine” (Monsanto Company, priority 1983, dated 1984):

What was measured:
Test in all cases: post-emergence herbicidal activity, greenhouse
Assay type in all cases: in vivo
Downy Brome = conditions: Table III, 4 WAT, .28 kg/h
Method in brief: (§1)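 Plants grown from seed or vegetative propagules in topsoil pans on a greenhouse sand bench, watered from below, were atomizer-sprayed at two to three weeks of age. The spray carried about 0.4% by weight emulsifier. Injury relative to unsprayed control pans was scored approximately two and four weeks after treatment.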

Hemp Sesbania = conditions: Table III
Method in brief: as §1

Johnsongrass = conditions: Table II
Method in brief: as §1

Large Crabgrass = conditions: Table III
Method in brief: as §1

Pennsylvania Smartweed = tested on: Pennsylvania Smartweed
Method in brief: as §1

Soybean = conditions: Table III
Method in brief: as §1

[1] = 2 WAT, 1.1 kg/h, formulated in anhydrous tetrahydrofuran
[2] = 2 WAT, 5.6 kg/h, formulated in anhydrous tetrahydrofuran
[3] = 2 WAT, .28 kg/h, formulated in anhydrous tetrahydrofuran
[4] = 4 WAT, 1.1 kg/h, formulated in anhydrous tetrahydrofuran
[5] = 4 WAT, 5.6 kg/h, formulated in anhydrous tetrahydrofuran
[6] = 4 WAT, .28 kg/h, formulated in anhydrous tetrahydrofuran

CCOC(=O)CNCP(=O)(O)O[Si](c1ccccc1)(c1ccccc1)C(C)(C)C [Ex. 7, Glycine, N--((([(1,1-Dimethylethyl)Diphenylsilyl]Oxy)Hydroxyphosphinyl)Methyl)-,Ethyl Ester]
2 (50-74% inhibition): Plant Response Index (R) (Hemp Sesbania; [1]) | Plant Response Index (R) (Hemp Sesbania; [4]) | Plant Response Index (R) (Hemp Sesbania; 4 WAT, 5.6 kg/h) | Plant Response Index (I) (Johnsongrass; [5]) | Plant Response Index (T) (Large Crabgrass; [3]) | Plant Response Index (T) (Large Crabgrass; [6]) | Plant Response Index (F) (Pennsylvania Smartweed; Table II, 2 WAT, 5.6 kg/h) | Plant Response Index (F) (Pennsylvania Smartweed; Table II, 2 WAT, 11.2 kg/h) | Plant Response Index (F) (Pennsylvania Smartweed; Table II, 4 WAT, 11.2 kg/h) | Plant Response Index (F) (Pennsylvania Smartweed; Table III, 2 WAT, 5.6 kg/h) | Plant Response Index (F) (Pennsylvania Smartweed; Table III, 2 WAT, .28 kg/h, formulated in anhydrous tetrahydrofuran) | Plant Response Index (F) (Pennsylvania Smartweed; Table III, 4 WAT, .28 kg/h, formulated in anhydrous tetrahydrofuran) | Plant Response Index (L) (Soybean; 2 WAT, 1.1 kg/h) | Plant Response Index (L) (Soybean; 2 WAT, 5.6 kg/h) | Plant Response Index (L) (Soybean; [2]) | Plant Response Index (L) (Soybean; [5])
1 (25-49% inhibition): Plant Response Index (R) (Hemp Sesbania; 2 WAT, 5.6 kg/h) | Plant Response Index (R) (Hemp Sesbania; [2]) | Plant Response Index (R) (Hemp Sesbania; 2 WAT, .28 kg/h) | Plant Response Index (R) (Hemp Sesbania; [5]) | Plant Response Index (R) (Hemp Sesbania; 4 WAT, .28 kg/h) | Plant Response Index (I) (Johnsongrass; 4 WAT, 11.2 kg/h, formulated in anhydrous tetrahydrofuran) | Plant Response Index (F) (Pennsylvania Smartweed; Table II, 2 WAT, 5.6 kg/h, formulated in anhydrous tetrahydrofuran) | Plant Response Index (F) (Pennsylvania Smartweed; Table II, 2 WAT, 11.2 kg/h, formulated in anhydrous tetrahydrofuran) | Plant Response Index (F) (Pennsylvania Smartweed; Table II, 4 WAT, 5.6 kg/h, formulated in anhydrous tetrahydrofuran) | Plant Response Index (L) (Soybean; [1]) | Plant Response Index (L) (Soybean; [3]) | Plant Response Index (L) (Soybean; 4 WAT, 1.1 kg/h) | Plant Response Index (L) (Soybean; [4]) | Plant Response Index (L) (Soybean; 4 WAT, 5.6 kg/h) | Plant Response Index (L) (Soybean; [6])
0 (0-24% inhibition): Plant Response Index (J) (Downy Brome) | Plant Response Index (J) (Downy Brome; formulated in anhydrous tetrahydrofuran) | Plant Response Index (R) (Hemp Sesbania; [3]) | Plant Response Index (R) (Hemp Sesbania; [6]) | Plant Response Index (I) (Johnsongrass; [2]) | Plant Response Index (I) (Johnsongrass; 2 WAT, 11.2 kg/h, formulated in anhydrous tetrahydrofuran) | Plant Response Index (L) (Soybean; 2 WAT, .28 kg/h) | Plant Response Index (L) (Soybean; 4 WAT, .28 kg/h)
3 (75-99% inhibition): Plant Response Index (R) (Hemp Sesbania; 2 WAT, 1.1 kg/h) | Plant Response Index (I) (Johnsongrass; 2 WAT, 5.6 kg/h) | Plant Response Index (T) (Large Crabgrass; [1]) | Plant Response Index (T) (Large Crabgrass; [2]) | Plant Response Index (T) (Large Crabgrass; [4]) | Plant Response Index (T) (Large Crabgrass; [5]) | Plant Response Index (F) (Pennsylvania Smartweed; Table III, 2 WAT, 1.1 kg/h) | Plant Response Index (F) (Pennsylvania Smartweed; Table III, 2 WAT, .28 kg/h) | Plant Response Index (F) (Pennsylvania Smartweed; Table III, 4 WAT, 1.1 kg/h) | Plant Response Index (F) (Pennsylvania Smartweed; Table III, 4 WAT, 5.6 kg/h) | Plant Response Index (F) (Pennsylvania Smartweed; Table III, 4 WAT, .28 kg/h)
4 (100% inhibition): Plant Response Index (R) (Hemp Sesbania; 4 WAT, 1.1 kg/h) | Plant Response Index (I) (Johnsongrass; 2 WAT, 11.2 kg/h) | Plant Response Index (I) (Johnsongrass; 4 WAT, 5.6 kg/h) | Plant Response Index (I) (Johnsongrass; 4 WAT, 11.2 kg/h) | Plant Response Index (T) (Large Crabgrass; 2 WAT, 1.1 kg/h) | Plant Response Index (T) (Large Crabgrass; 4 WAT, 1.1 kg/h) | Plant Response Index (F) (Pennsylvania Smartweed; Table II, 4 WAT, 5.6 kg/h) | Plant Response Index (F) (Pennsylvania Smartweed; Table II, 4 WAT, 11.2 kg/h, formulated in anhydrous tetrahydrofuran) | Plant Response Index (F) (Pennsylvania Smartweed; Table III, 2 WAT, 1.1 kg/h, formulated in anhydrous tetrahydrofuran) | Plant Response Index (F) (Pennsylvania Smartweed; Table III, 2 WAT, 5.6 kg/h, formulated in anhydrous tetrahydrofuran) | Plant Response Index (F) (Pennsylvania Smartweed; Table III, 4 WAT, 1.1 kg/h, formulated in anhydrous tetrahydrofuran) | Plant Response Index (F) (Pennsylvania Smartweed; Table III, 4 WAT, 5.6 kg/h, formulated in anhydrous tetrahydrofuran)
